What was measured:
SK-OV-3 [1] = assay: Antiproliferative activity against human SK-OV-3 cells assessed as inhibition of cell growth relative to control; assay type: functional; set-up: scale not given: the % may be the effect or the level left
IGROV-1 = assay: Antiproliferative activity against human IGROV-1 cells assessed as inhibition of cell growth relative to control; assay type: functional; set-up: scale not given: the % may be the effect or the level left
DU-145 = assay: Antiproliferative activity against human DU-145 cells assessed as inhibition of cell growth; assay type: functional, cell-based
OVCAR-3 = assay: Antiproliferative activity against human OVCAR-3 cells assessed as inhibition of cell growth; assay type: functional, cell-based
T47D = assay: Antiproliferative activity against human T47D cells assessed as inhibition of cell growth relative to control; assay type: functional; set-up: scale not given: the % may be the effect or the level left
[2] = target: T1, Macrophage colony-stimulating factor 1 receptor (Homo sapiens, UniProt P07333); assay: Inhibition of FMS (unknown origin) relative to control; settings: concentration not given here
[3] = target: T1, Macrophage colony-stimulating factor 1 receptor; assay: Inhibition of FMS (unknown origin)
SK-OV-3 [4] = assay: Antiproliferative activity against human SK-OV-3 cells assessed as inhibition of cell growth; assay type: functional, cell-based
HS27 = assay: Cytotoxicity against human HS27 cells; assay type: functional, cell-based
Macrophage = assay: Cytotoxicity against human Macrophage cells relative to control; assay type: functional
[5] = Cytotoxicity against human A375P cells; assay type: functional, cell-based
[6] = Antiproliferative activity against human A375P cells; assay type: functional, cell-based
[7] = Cytotoxicity against human HUVEC cells; assay type: toxicity, cell-based
[8] = tested on: Panel NCI-60 (60 carcinoma cell lines); assay: Antiproliferative activity against human Panel NCI-60 (60 carcinoma cell lines) assessed as reduction in cell viability; assay type: functional
OVCAR-5 = assay: Antiproliferative activity against human OVCAR-5 cells assessed as reduction in cell viability; assay type: functional, cell-based
MCF7 = assay: Anticancer activity against human MCF7 cells assessed as inhibition of cell growth; assay type: functional; set-up: scale not given: the % may be the effect or the level left
MDA-MB-468 = assay: Anticancer activity against human MDA-MB-468 cells assessed as inhibition of cell growth; assay type: functional; set-up: scale not given: the % may be the effect or the level left
MOLT-4 = assay: Anticancer activity against human MOLT-4 cells assessed as inhibition of cell growth; assay type: functional; set-up: scale not given: the % may be the effect or the level left
[9] = tested on: Panel NCI-60 (60 carcinoma cell lines); assay: Antiproliferative activity against human Panel NCI-60 (60 carcinoma cell lines) assessed as reduction in cell viability at 10 uM; assay type: functional
[10] = Antitumor activity against human OVCAR cells implanted in mouse assessed as tumor growth inhibition; assay type: functional
[11] = Antiproliferative activity against human OVCAR assessed as reduction in cell viability; assay type: functional, cell-based
[12] = Volume of distribution in human; assay type: ADME
[13] = Oral bioavailability in mouse at 100 mg/kg administered once daily; assay type: ADME, organism-based; settings: in vivo
[14] = Plasma concentration in mouse at 100 mg/kg, po administered once daily; assay type: ADME, organism-based; settings: in vivo
[15] = Half life in mouse at 100 mg/kg, po administered once daily; settings: in vivo
[16] = Volume of distribution in mouse at 100 mg/kg, po administered once daily; assay type: ADME, organism-based; settings: in vivo
[17] = AUC in mouse at 100 mg/kg, po administered once daily; assay type: ADME, organism-based; set-up: dose 100 mg/kg, route po; settings: in vivo
[18] = Plasma protein binding in mouse at 100 mg/kg, po administered once daily; assay type: ADME, organism-based; settings: read-out: PPB (converted)
[19] = Inhibition of tyrosine kinase (unknown origin); set-up: species or system Homo sapiens
[20] = Inhibition of tyrosine kinase (unknown origin) in human LNCaP-abl cells
[21] = Oral bioavailability in mouse; assay type: ADME, organism-based; settings: in vivo
[22] = Cmax in mouse plasma; assay type: ADME, cell-free
[23] = Cmax in female mouse plasma; assay type: ADME, cell-free
[24] = Cmax in male mouse plasma; assay type: ADME, cell-free
Cytochrome P450 1A2 = target: T2, Cytochrome P450 1A2 (Homo sapiens, UniProt P05177); assay: Inhibition of CYP1A2 (unknown origin); assay type: ADME
T2 sequence (P05177 whole entry): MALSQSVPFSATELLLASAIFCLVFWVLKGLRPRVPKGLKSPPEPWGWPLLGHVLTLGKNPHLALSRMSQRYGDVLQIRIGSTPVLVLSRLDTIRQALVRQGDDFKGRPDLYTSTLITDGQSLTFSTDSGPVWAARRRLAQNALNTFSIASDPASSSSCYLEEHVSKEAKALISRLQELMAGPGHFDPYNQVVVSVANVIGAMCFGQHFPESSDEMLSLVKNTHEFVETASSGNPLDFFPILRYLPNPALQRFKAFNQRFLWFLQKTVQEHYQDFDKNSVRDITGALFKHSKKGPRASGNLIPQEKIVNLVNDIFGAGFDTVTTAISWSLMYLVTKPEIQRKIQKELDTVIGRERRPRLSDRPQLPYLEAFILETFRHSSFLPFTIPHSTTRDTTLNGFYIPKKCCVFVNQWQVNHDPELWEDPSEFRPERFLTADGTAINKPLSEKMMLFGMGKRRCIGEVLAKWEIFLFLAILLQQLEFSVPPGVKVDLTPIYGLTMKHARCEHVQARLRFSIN

Cytochrome P450 2D6 = Cytochrome P450 2D6 (Homo sapiens, UniProt P10635); assay: Inhibition of CYP2D6 (unknown origin); assay type: ADME
Cytochrome P450 2C19 = Cytochrome P450 2C19 (Homo sapiens, UniProt P33261); assay: Inhibition of CYP2C19 (unknown origin); assay type: ADME
SCH = assay: Antiproliferative activity against human SCH cells assessed as reduction in cell viability; assay type: functional, cell-based
[25] = Oral bioavailability in mouse at 400 to 600 mg/kg; assay type: ADME, organism-based; settings: in vivo, dose 400-600 mg/kg
[26] = Plasma concentration in mouse at 400 to 600 mg/kg, po administered once daily; assay type: ADME, organism-based; settings: in vivo, dose 400-600 mg/kg
[27] = AUC in mouse at 400 to 600 mg/kg, po administered once daily; assay type: ADME, organism-based; set-up: route po; settings: in vivo, dose 400-600 mg/kg
[28] = Half life in human; assay type: ADME
[29] = Drug absorption in mouse at 400 mg/kg, po; assay type: ADME, organism-based; settings: in vivo, read-out: Drug absorption
[30] = Drug excretion in rat feces assessed as cumulative amount of unchanged drug excreted at 10 mg/kg, po; assay type: ADME, organism-based; settings: faeces, read-out: Drug excretion
[31] = Tmax in human; assay type: ADME
[32] = Oral bioavailability in mouse at 150 to 400 mg/kg administered twice daily; assay type: ADME, organism-based; settings: in vivo, dose 150-400 mg/kg
[33] = Plasma concentration in mouse at 150 to 400 mg/kg, po administered twice daily; assay type: ADME, organism-based; settings: in vivo, dose 150-400 mg/kg
[34] = Half life in mouse at 150 to 400 mg/kg, po administered twice daily; assay type: ADME, organism-based; settings: in vivo, dose 150-400 mg/kg
[35] = AUC in mouse at 150 to 400 mg/kg, po administered twice daily; assay type: ADME, organism-based; set-up: route po; settings: in vivo, dose 150-400 mg/kg
[36] = Plasma protein binding in mouse at 150 to 400 mg/kg, po administered twice daily; assay type: ADME, organism-based; settings: dose 150-400 mg/kg, read-out: PPB (converted)
[37] = mouse, in vivo, po
Description: Volume of distribution in mouse at 150 to 400 mg/kg, po administered twice daily

T1 sequence (P07333 whole entry): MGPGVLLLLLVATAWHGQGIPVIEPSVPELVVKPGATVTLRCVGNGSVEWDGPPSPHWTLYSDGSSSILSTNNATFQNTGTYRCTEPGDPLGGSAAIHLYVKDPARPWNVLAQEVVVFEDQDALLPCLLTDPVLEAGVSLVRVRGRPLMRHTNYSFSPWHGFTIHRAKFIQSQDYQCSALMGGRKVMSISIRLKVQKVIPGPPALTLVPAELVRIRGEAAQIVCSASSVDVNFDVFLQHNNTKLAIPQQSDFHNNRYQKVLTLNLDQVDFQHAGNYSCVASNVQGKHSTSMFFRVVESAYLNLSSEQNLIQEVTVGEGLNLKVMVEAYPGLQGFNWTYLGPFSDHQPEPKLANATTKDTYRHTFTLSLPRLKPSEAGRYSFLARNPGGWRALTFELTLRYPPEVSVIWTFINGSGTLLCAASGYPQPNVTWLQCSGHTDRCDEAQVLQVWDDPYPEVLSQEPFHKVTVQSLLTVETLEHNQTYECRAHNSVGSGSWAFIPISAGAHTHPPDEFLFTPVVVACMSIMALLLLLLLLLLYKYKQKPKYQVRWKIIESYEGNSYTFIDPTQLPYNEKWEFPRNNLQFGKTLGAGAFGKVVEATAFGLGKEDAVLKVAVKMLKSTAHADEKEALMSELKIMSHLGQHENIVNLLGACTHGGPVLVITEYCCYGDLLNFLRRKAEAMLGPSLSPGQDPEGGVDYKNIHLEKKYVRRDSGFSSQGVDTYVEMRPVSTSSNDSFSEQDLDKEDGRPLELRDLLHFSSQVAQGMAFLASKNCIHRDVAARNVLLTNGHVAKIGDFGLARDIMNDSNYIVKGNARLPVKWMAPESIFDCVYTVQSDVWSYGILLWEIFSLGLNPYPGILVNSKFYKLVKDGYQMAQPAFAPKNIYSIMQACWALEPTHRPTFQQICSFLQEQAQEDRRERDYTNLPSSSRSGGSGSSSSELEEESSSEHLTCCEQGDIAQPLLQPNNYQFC
Chain of Cytochrome P450 2C19 (P33261 whole entry): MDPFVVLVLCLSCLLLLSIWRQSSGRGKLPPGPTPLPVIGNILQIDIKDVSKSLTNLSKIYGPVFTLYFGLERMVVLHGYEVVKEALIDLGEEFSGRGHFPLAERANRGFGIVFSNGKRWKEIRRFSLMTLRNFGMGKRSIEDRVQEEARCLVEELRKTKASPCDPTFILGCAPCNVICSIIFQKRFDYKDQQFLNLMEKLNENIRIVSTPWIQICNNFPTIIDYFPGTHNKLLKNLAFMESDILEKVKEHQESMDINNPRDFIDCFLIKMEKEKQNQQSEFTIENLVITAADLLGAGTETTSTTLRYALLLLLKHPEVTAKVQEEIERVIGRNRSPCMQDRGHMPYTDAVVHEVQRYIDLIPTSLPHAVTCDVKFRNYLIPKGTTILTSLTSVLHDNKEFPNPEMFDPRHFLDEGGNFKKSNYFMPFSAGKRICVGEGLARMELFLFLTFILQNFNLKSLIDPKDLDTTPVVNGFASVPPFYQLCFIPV
Chain of Cytochrome P450 2D6 (P10635 whole entry): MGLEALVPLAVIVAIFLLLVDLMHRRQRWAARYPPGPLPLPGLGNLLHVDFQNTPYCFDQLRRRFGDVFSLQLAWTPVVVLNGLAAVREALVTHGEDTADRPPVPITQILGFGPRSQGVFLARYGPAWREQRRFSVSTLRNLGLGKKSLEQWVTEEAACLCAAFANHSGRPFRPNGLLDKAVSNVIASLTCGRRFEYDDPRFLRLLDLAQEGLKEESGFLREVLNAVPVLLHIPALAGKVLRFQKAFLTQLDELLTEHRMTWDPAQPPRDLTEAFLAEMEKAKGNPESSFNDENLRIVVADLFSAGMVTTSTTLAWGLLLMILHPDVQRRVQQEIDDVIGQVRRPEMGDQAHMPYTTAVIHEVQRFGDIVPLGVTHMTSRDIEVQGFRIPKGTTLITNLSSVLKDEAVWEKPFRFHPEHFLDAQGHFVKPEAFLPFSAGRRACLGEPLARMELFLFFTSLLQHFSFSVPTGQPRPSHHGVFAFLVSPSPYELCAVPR

Structure (SMILES): O=C(Nc1cccc(-n2ccc3c(NC(=O)c4ccccc4)nccc32)c1)c1ccc(N2CCOCC2)c(C(F)(F)F)c1
- Activity (SK-OV-3 [1]): 106.2%
- Activity (IGROV-1): 90%
- IC50 (DU-145): 0.098 µM
- IC50 (OVCAR-3): 0.045 µM
- Activity (T47D): 90%
- inhibition [2]: 90%
- IC50 [3]: 0.03 µM
- IC50 (SK-OV-3 [4]): 3.6 µM
- IC50 (HS27): 0.3 µM
- Activity (Macrophage): 52%

Structure (SMILES): CCN1CCN(Cc2ccc(NC(=O)Nc3ccc(-n4ccc5c(NC(=O)c6ccccc6)nccc54)cc3)cc2C(F)(F)F)CC1
- IC50 (HS27): 7.8 µM
- IC50 [5]: 0.1 µM

Structure (SMILES): Cc1ccc(NC(=O)Nc2cc(F)cc(C(F)(F)F)c2)cc1Nc1cc(=O)[nH]c(N)n1
- IC50 [6]: 0.19 µM

Structure (SMILES): COc1ccc(-c2nc3c(Nc4ccc(NC(=O)c5cccc(Cl)c5)cc4)nc(C)nc3o2)cc1
- IC50 [7]: 1.28 µM

Structure (SMILES): Cc1nc(Nc2ccc(NC(=O)c3cccc(Cl)c3)cc2)c2nc(-c3ccc(Cl)cc3)oc2n1
- IC50 [7]: 1.31 µM

Structure (SMILES): COc1ccc(-c2nn(-c3ccc(NC(=O)c4ccc(Cl)c(C(F)(F)F)c4)cc3)cc2-c2ccncc2)cc1Cl
- Activity [8]: 103.16%
- IC50 (OVCAR-5): 1.33 µM

Structure (SMILES): COc1cc2cc3c(nc2cc1OC)CCN3Cc1ccc(NC(=O)c2ccc(Cl)c(C(F)(F)F)c2)cc1
- Activity (MCF7): 84.97%
- Activity (MDA-MB-468): 87.13%
- Activity (MOLT-4): 43.19%

Structure (SMILES): Cc1ccc(NC(=O)Nc2ccc(Cl)nc2)cc1Nc1cc(=O)[nH]c(N)n1
- IC50 [6]: 0.19 µM

Structure (SMILES): O=C(Nc1ccc(-n2ccc3c(NC(=O)c4ccccc4)ncnc32)cc1)Nc1cccc(Cl)c1Cl
- Activity [9]: 109.18%
- TGI [10]: 1.8 µM
- IC50 [11]: 3.67 µM

Structure (SMILES): Cc1nc(Nc2ncc(C(=O)Nc3c(C)cccc3Cl)s2)cc(N2CCN(CCO)CC2)n1.O [DASATINIB]
- Vd [12]: 2.05 L
- bioavailability [13]: 14%
- Cp [14]: 129 ng/mL
- half-life [15]: 3 h
- Vd [16]: 2.052 L
- AUC [17]: 48.8 ng·h/mL
- fraction unbound [18]: 0.04

Structure (SMILES): Cc1ccc(NC(=O)c2ccc(CN3CCN(C)CC3)cc2)cc1Nc1nccc(-c2cccnc2)n1 [IMATINIB]
- IC50 [19]: 0.03 µM
- IC50 [20]: 0.188 µM
- bioavailability [21]: 98.3%
- Cmax [22]: 1.9 ng/mL
- Cmax [23]: 1080 ng/mL
- Cmax [24]: 921 ng/mL
- inhibition (INH) (Cytochrome P450 1A2): 10%
- inhibition (INH) (Cytochrome P450 2D6): 10%
- inhibition (INH) (Cytochrome P450 2C19): 10%
- IC50 (SCH): 4.7 µM
- bioavailability [25]: 98.3%
- Cp [26]: 3.7 ng/mL
- AUC [27]: 24800 ng·h/mL

Structure (SMILES): Cc1cn(-c2cc(NC(=O)c3ccc(C)c(Nc4nccc(-c5cccnc5)n4)c3)cc(C(F)(F)F)c2)cn1 [NILOTINIB]
- IC50 [19]: 0.188 µM
- half-life [28]: 17 h
- Fa [29]: 35%
- dose excreted [30]: 69%
- Tmax [31]: 3 h
- IC50 (SCH): 14.6 µM
- bioavailability [32]: 25%
- Cp [33]: 445 ng/mL
- half-life [34]: 13 h
- AUC [35]: 11.9 ng·h/mL
- fraction unbound [36]: 0.02
- Vd [37]: 0.55 L/kg

Structure (SMILES): CNC(=O)c1cc(Oc2ccc(NC(=O)Nc3ccc(Cl)c(C(F)(F)F)c3)cc2)ccn1 [SORAFENIB]
- IC50 (HS27): 7.8 µM
- IC50 [5]: 0.095 µM
